Values belong to the compound of their own block, whether it stands above or below them. Active and inactive are the calls of the source. The rule behind the calls is not given here.
What was measured:
[1] = target: Leucine-rich repeat serine/threonine-protein kinase 2 (Homo sapiens) (UniProt Q5S007); test: Inhibition of LRRK2 (unknown origin) at 1 uM relative to control
[2] = target: T1, von Hippel-Lindau disease tumor suppressor/Focal adhesion kinase 1 (Homo sapiens, UniProt Q05397+P40337); test: Protac activity at VHL/PTK2 in human Huh-7 cells assessed as induction of PTK2 degradation incubated for 18 hrs by protein capillary electrophoresis method; format: cell-based
Target sequence in this assay (Q05397 whole entry): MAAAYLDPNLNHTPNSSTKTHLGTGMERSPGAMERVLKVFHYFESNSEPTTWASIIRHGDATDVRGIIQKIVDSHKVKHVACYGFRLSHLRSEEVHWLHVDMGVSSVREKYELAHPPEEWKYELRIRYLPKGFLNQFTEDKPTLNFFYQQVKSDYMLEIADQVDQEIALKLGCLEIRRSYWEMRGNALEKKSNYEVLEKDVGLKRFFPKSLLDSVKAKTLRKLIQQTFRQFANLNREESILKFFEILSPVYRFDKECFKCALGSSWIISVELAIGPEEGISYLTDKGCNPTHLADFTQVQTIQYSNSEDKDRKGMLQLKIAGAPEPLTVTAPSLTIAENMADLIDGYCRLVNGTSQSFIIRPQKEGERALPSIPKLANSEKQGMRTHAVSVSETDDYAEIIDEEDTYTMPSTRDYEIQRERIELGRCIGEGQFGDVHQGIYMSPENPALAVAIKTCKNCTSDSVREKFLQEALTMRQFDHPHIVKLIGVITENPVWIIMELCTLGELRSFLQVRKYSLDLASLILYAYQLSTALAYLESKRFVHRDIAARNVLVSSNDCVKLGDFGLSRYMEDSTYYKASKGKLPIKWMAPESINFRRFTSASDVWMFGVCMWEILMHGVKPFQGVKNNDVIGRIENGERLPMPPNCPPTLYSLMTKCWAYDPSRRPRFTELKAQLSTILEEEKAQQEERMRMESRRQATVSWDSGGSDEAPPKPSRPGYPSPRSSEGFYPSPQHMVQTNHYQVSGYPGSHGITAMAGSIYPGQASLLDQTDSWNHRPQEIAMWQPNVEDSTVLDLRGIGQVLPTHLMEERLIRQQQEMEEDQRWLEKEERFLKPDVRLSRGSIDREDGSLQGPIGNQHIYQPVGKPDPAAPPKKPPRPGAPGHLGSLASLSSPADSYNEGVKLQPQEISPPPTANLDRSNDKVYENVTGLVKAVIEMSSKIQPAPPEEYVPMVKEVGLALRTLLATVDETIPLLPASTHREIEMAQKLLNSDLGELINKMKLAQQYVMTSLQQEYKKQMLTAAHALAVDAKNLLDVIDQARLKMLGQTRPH
Target sequence in this assay (P40337 whole entry): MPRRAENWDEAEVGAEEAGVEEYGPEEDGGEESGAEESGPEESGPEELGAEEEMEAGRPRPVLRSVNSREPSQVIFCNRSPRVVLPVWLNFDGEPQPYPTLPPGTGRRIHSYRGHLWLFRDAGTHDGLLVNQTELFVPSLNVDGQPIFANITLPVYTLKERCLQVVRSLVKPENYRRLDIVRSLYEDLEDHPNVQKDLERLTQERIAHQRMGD

[3] = target: T1, von Hippel-Lindau disease tumor suppressor/Focal adhesion kinase 1; test: Protac activity at VHL/PTK2 in human Hep3B2.1-7 cells assessed as induction of PTK2 degradation incubated for 18 hrs in presence of Cyclosporine by protein capillary electrophoresis method; format: cell-based; details: hep3b
Target sequence in this assay (Q05397 whole entry): as the sequence (Q05397 whole entry) above
Target sequence in this assay (P40337 whole entry): as the sequence (P40337 whole entry) above

[4] = target: T1, von Hippel-Lindau disease tumor suppressor/Focal adhesion kinase 1; test: Protac activity at VHL/PTK2 in human Hep3B2.1-7 cells assessed as induction of PTK2 degradation incubated for 18 hrs by protein capillary electrophoresis method; format: cell-based; details: hep3b
Target sequence in this assay (Q05397 whole entry): as the sequence (Q05397 whole entry) above
Target sequence in this assay (P40337 whole entry): as the sequence (P40337 whole entry) above

[5] = target: Tyrosine-protein kinase Fes/Fps (Homo sapiens) (UniProt P07332); test: Inhibition of FES (unknown origin) at 1 uM relative to control
Chain of Tyrosine-protein kinase Fes/Fps (Homo sapiens) (P07332 whole entry): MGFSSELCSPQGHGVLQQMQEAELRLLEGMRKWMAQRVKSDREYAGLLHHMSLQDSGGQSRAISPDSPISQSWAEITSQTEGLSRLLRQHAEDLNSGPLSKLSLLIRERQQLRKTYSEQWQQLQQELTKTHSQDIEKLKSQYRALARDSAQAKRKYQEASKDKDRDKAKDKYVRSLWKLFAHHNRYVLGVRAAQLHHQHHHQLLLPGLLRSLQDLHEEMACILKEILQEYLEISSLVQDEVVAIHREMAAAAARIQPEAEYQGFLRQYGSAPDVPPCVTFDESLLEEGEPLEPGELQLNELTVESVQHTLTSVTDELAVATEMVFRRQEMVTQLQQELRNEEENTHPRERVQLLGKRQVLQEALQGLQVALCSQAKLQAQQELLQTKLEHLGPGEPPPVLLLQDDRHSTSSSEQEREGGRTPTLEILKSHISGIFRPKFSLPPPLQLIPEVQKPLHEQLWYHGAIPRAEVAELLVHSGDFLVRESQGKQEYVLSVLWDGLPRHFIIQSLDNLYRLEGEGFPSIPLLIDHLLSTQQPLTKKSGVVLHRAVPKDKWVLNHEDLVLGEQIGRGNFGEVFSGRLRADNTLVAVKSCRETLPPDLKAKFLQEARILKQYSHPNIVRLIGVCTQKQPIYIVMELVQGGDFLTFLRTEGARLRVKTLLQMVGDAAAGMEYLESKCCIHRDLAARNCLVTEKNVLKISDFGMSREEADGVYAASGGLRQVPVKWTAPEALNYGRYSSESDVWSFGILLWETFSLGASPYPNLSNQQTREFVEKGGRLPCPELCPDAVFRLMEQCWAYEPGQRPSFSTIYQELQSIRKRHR

[6] = target: T1, von Hippel-Lindau disease tumor suppressor/Focal adhesion kinase 1; test: Protac activity at VHL/PTK2 in human A549 cells assessed as induction of PTK2 degradation incubated for 18 hrs by protein capillary electrophoresis method; format: cell-based
Target sequence in this assay (Q05397 whole entry): as the sequence (Q05397 whole entry) above
Target sequence in this assay (P40337 whole entry): as the sequence (P40337 whole entry) above

[7] = target: T1, von Hippel-Lindau disease tumor suppressor/Focal adhesion kinase 1; test: Protac activity at VHL/PTK2 in human HepG2 cells assessed as induction of PTK2 degradation incubated for 18 hrs by protein capillary electrophoresis method relative to control; format: cell-based
[8] = target: T1, von Hippel-Lindau disease tumor suppressor/Focal adhesion kinase 1; test: Protac activity at VHL/PTK2 in human Hep3B2.1-7 cells assessed as induction of PTK2 degradation incubated for 18 hrs in presence of Cyclosporine by protein capillary electrophoresis method relative to control; format: cell-based; details: Hep3B
[9] = target: T1, von Hippel-Lindau disease tumor suppressor/Focal adhesion kinase 1; test: Protac activity at VHL/PTK2 in human SNU-423 cells assessed as induction of PTK2 degradation incubated for 18 hrs by protein capillary electrophoresis method relative to control; format: cell-based
[10] = target: T1, von Hippel-Lindau disease tumor suppressor/Focal adhesion kinase 1; test: Protac activity at VHL/PTK2 in human SNU-398 cells assessed as induction of PTK2 degradation incubated for 18 hrs by protein capillary electrophoresis method relative to control; format: cell-based
[11] = target: T1, von Hippel-Lindau disease tumor suppressor/Focal adhesion kinase 1; test: Protac activity at VHL/PTK2 in human Huh-7 cells assessed as induction of PTK2 degradation incubated for 18 hrs by protein capillary electrophoresis method relative to control; format: cell-based
[12] = target: T1, von Hippel-Lindau disease tumor suppressor/Focal adhesion kinase 1; test: Protac activity at VHL/PTK2 in human Hep3B2.1-7 cells assessed as induction of PTK2 degradation incubated for 18 hrs by protein capillary electrophoresis method relative to control; format: cell-based; details: Hep3B
[13] = target: T1, von Hippel-Lindau disease tumor suppressor/Focal adhesion kinase 1; test: Protac activity at VHL/PTK2 in human Hep3B2.1-7 cells assessed as time required for maximal induction of PTK2 degradation at 3 uM incubated for up to 80 hrs by protein capillary electrophoresis method; details: time hrs <=80
[14] = target: T1, von Hippel-Lindau disease tumor suppressor/Focal adhesion kinase 1; test: Protac activity at VHL/PTK2 in human A549 cells assessed as induction of PTK2 degradation at 1 to 100000 nM incubated for 18 hrs in presence of NEDD8 inhibitor […] by protein capillary electrophoresis method; format: cell-based; details: dose 1-100000 nM
[15] = target: T2, Protein cereblon/Focal adhesion kinase 1 (Homo sapiens, UniProt Q05397+Q96SW2); test: Protac activity at CRBN/PTK2 in human HLF1 cells assessed as induction of PTK2 degradation incubated for 18 hrs by protein capillary electrophoresis method relative to control; format: cell-based
[16] = target: T2, Protein cereblon/Focal adhesion kinase 1; test: Protac activity at CRBN/PTK2 in human HLE cells assessed as induction of PTK2 degradation incubated for 18 hrs by protein capillary electrophoresis method relative to control; format: cell-based
[17] = target: T2, Protein cereblon/Focal adhesion kinase 1; test: Protac activity at CRBN/PTK2 in human SNU-398 cells assessed as induction of PTK2 degradation incubated for 18 hrs by protein capillary electrophoresis method relative to control; format: cell-based
[18] = target: T2, Protein cereblon/Focal adhesion kinase 1; test: Protac activity at CRBN/PTK2 in human SK-HEP1 cells assessed as induction of PTK2 degradation incubated for 18 hrs by protein capillary electrophoresis method; format: cell-based
Target sequence in this assay (Q05397 whole entry): as the sequence (Q05397 whole entry) above
Target sequence in this assay (Q96SW2 whole entry): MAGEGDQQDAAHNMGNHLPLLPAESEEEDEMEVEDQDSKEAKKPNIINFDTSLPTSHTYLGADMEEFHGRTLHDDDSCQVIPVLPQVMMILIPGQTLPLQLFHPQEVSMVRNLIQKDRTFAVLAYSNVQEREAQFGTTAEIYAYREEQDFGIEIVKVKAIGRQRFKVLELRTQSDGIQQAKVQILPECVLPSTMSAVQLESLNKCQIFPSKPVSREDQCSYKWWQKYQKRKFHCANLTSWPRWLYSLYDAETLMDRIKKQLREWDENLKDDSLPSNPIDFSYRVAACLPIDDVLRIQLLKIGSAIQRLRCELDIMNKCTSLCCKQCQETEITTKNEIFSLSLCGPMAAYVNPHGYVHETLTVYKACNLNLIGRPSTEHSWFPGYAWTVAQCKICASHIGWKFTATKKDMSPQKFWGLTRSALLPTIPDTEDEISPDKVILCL

[19] = target: T2, Protein cereblon/Focal adhesion kinase 1; test: Protac activity at CRBN/PTK2 in human HuCCT-1 cells assessed as induction of PTK2 degradation incubated for 18 hrs by protein capillary electrophoresis method; format: cell-based
Target sequence in this assay (Q05397 whole entry): as the sequence (Q05397 whole entry) above
Target sequence in this assay (Q96SW2 whole entry): as the sequence (Q96SW2 whole entry) above

[20] = target: T2, Protein cereblon/Focal adhesion kinase 1; test: Protac activity at CRBN/PTK2 in human SNU-423 cells assessed as induction of PTK2 degradation incubated for 18 hrs by protein capillary electrophoresis method; format: cell-based
Target sequence in this assay (Q05397 whole entry): as the sequence (Q05397 whole entry) above
Target sequence in this assay (Q96SW2 whole entry): as the sequence (Q96SW2 whole entry) above

[21] = target: T2, Protein cereblon/Focal adhesion kinase 1; test: Protac activity at CRBN/PTK2 in human A549 cells assessed as induction of PTK2 degradation incubated for 18 hrs by protein capillary electrophoresis method relative to control; format: cell-based
[22] = target: T2, Protein cereblon/Focal adhesion kinase 1; test: Protac activity at CRBN/PTK2 in human Huh-7 cells assessed as induction of PTK2 degradation incubated for 18 hrs by protein capillary electrophoresis method; format: cell-based
Target sequence in this assay (Q05397 whole entry): as the sequence (Q05397 whole entry) above
Target sequence in this assay (Q96SW2 whole entry): as the sequence (Q96SW2 whole entry) above

[23] = target: T2, Protein cereblon/Focal adhesion kinase 1; test: Protac activity at CRBN/PTK2 in human Hep3B2.1-7 cells assessed as induction of PTK2 degradation incubated for 18 hrs in presence of Cyclosporine A by protein capillary electrophoresis method; format: cell-based; details: hep3b
Target sequence in this assay (Q05397 whole entry): as the sequence (Q05397 whole entry) above
Target sequence in this assay (Q96SW2 whole entry): as the sequence (Q96SW2 whole entry) above

[24] = target: T2, Protein cereblon/Focal adhesion kinase 1; test: Protac activity at CRBN/PTK2 in human HuH-1 cells assessed as induction of PTK2 degradation incubated for 18 hrs by protein capillary electrophoresis method relative to control; format: cell-based
[25] = target: T2, Protein cereblon/Focal adhesion kinase 1; test: Protac activity at CRBN/PTK2 in human Hep3B2.1-7 cells assessed as time required for maximal induction of PTK2 degradation at 3 uM incubated for up to 80 hrs by protein capillary electrophoresis method; details: time hrs <=80
[26] = target: T2, Protein cereblon/Focal adhesion kinase 1; test: Protac activity at CRBN/PTK2 in human Huh-7 cells assessed as induction of PTK2 degradation incubated for 18 hrs by protein capillary electrophoresis method relative to control; format: cell-based
[27] = target: T2, Protein cereblon/Focal adhesion kinase 1; test: Protac activity at CRBN/PTK2 in human HepG2 cells assessed as induction of PTK2 degradation incubated for 18 hrs by protein capillary electrophoresis method; format: cell-based
Target sequence in this assay (Q05397 whole entry): as the sequence (Q05397 whole entry) above
Target sequence in this assay (Q96SW2 whole entry): as the sequence (Q96SW2 whole entry) above

[28] = target: T2, Protein cereblon/Focal adhesion kinase 1; test: Protac activity at CRBN/PTK2 in human HLE cells assessed as induction of PTK2 degradation incubated for 18 hrs by protein capillary electrophoresis method; format: cell-based
[29] = target: T2, Protein cereblon/Focal adhesion kinase 1; test: Protac activity at CRBN/PTK2 in human Hep3B2.1-7 cells assessed as induction of PTK2 degradation incubated for 18 hrs in presence of Cyclosporine A by protein capillary electrophoresis method relative to control; format: cell-based; details: Hep3B
[30] = target: T2, Protein cereblon/Focal adhesion kinase 1; test: Protac activity at CRBN/PTK2 in human Hep3B2.1-7 cells assessed as induction of PTK2 degradation incubated for 18 hrs by protein capillary electrophoresis method relative to control; format: cell-based; details: Hep3B
[31] = target: T2, Protein cereblon/Focal adhesion kinase 1; test: Protac activity at CRBN/PTK2 in human A549 cells assessed as induction of PTK2 degradation incubated for 18 hrs by protein capillary electrophoresis method; format: cell-based
[32] = target: T2, Protein cereblon/Focal adhesion kinase 1; test: Protac activity at CRBN/PTK2 in human HuCCT-1 cells assessed as induction of PTK2 degradation incubated for 18 hrs by protein capillary electrophoresis method relative to control; format: cell-based
[33] = target: T2, Protein cereblon/Focal adhesion kinase 1; test: Protac activity at CRBN/PTK2 in human SNU-387 cells assessed as induction of PTK2 degradation incubated for 18 hrs by protein capillary electrophoresis method relative to control; format: cell-based

inhibition [1]: > 90%
pDC50 [2]: 7
pDC50 [3]: 7.4
pDC50 [4]: 6.2
inhibition [5]: > 90%
pDC50 [6]: 6.7
Emax [7]: 65%
Emax [8]: 88%
Emax [9]: 87%
Emax [10]: 99%
Emax [11]: 79%
Emax [12]: 59%
TIME [13]: 20 h
Activity [14]: inactive
Compound: COc1cc(C(=O)NCCOCCOCCOCC(=O)N[C@H](C(=O)N2C[C@H](O)C[C@H]2C(=O)NCc2ccc(-c3scnc3C)cc2)C(C)(C)C)ccc1Nc1ncc(C(F)(F)F)c(Oc2cccc3c2C(=O)CC3)n1

Emax [15]: 30%
Emax [16]: 79%
Emax [17]: 95%
pDC50 [18]: 7.5
pDC50 [19]: 7.9
pDC50 [20]: 7.9
Emax [21]: 95%
pDC50 [22]: 7.3
pDC50 [23]: 9
Emax [24]: 50%
TIME [25]: 5 h
Emax [26]: 93%
pDC50 [27]: 7.5
pDC50 [28]: 6.8
Emax [29]: 94%
Emax [30]: 96%
pDC50 [31]: 7.6
Emax [32]: 90%
Emax [33]: 90%
Compound: COc1cc(C(=O)NCCOCCOCCOCCC(=O)Nc2cccc3c2C(=O)N(C2CCC(=O)NC2=O)C3=O)ccc1Nc1ncc(C(F)(F)F)c(Oc2cccc3c2C(=O)CC3)n1 (stereo not drawn)
